Experimental data taken from patent US20080026417A1, “ASSAYS FOR TRICHOMONAL AND OTHER HYDROLASES” (priority 2002, published 2008).
Peptide text beside a SMILES is read from it. * marks the point of attachment. NH(4-MeO-2-naphthyl) = COc1cc(N*)cc2ccccc12; βNA = c1ccc2cc(N*)ccc2c1; Cbz = O=C(OCc1ccccc1)*; Bz = O=C(c1ccccc1)*

Test system: trichomonal hydrolases
Assay: Experiment 13: hydrolysis of peptide substrates by trichomonal hydrolases at low pH, no vaginal fluid
Format: biochemical, Trichomonas vaginalis
Parameters: key: −: No red color produced; +: Clearly visible red color produced; ++: Moderately intense red color produced; +++: Very intense red color produced
Settings: without vaginal fluid; threonine buffer pH 2.4; 2 mM substrate solution; 10 min 25° C.; Fast Garnet
Description: Forty μL of each substrate was pipetted into duplicate wells of a microtiter plate. The plate was covered with tape, placed into a 25° C. incubator, and allowed to warm. A diluted enzyme mixture was prepared by mixing one part (v/v) freshly-thawed trichomonal hydrolase solution to nine parts 2 mM L-cysteine solution. Forty μL of this mixture was added to one well of each pair of duplicate wells. For negative controls, 40 μL of 2 mM L-cysteine was added to the second well in each pair of duplicate wells. The plate was returned to the incubator and incubated for ten minutes. Forty μL of SDS/acetate solution was added to each well, followed by 40 μL of Fast Garnet solution. The intensity of color that developed in each well after five minutes was visually scored using the color scale presented in Table 13.1.

SMILES	Color Score
NC(N)=NCCCC(NC(=O)c1ccccc1)C(=O)Nc1ccc2ccccc2c1 (racemic) [BZ-DL-Arg-βNA]	−
C[C@H](N)C(=O)N[C@@H](C)C(=O)Nc1ccc2ccccc2c1 [Ala-Ala-βNA] (H-Ala-Ala-βNA)	−
C[C@H](N)C(=O)Nc1ccc2ccccc2c1 [Ala-βNA]	−
N=C(N)NCCC[C@H](NC(=O)[C@@H](N)CCCNC(=N)N)C(=O)Nc1ccc2ccccc2c1 [Arg-Arg-βNA] (H-Arg-Arg-βNA)	−
COc1cc(NC(=O)[C@@H](N)CCCN=C(N)N)cc2ccccc12 [Arg-MNA]	−
NC(N)=NCCC[C@H](N)C(=O)Nc1ccc2ccccc2c1 [Arg-βNA]	−
COc1cc(NC(=O)[C@H](C)NC(=O)[C@H](C)NC(=O)[C@H](CCC(N)=O)NC(=O)OC(C)(C)C)cc2ccccc12 [BOC-Gln-Ala-Ala-MNA]	−
COc1cc(NC(=O)C(CCCNC(=N)N)NC(=O)C(C)NC(=O)C(CCC(N)=O)NC(=O)OC(C)(C)C)cc2ccccc12 (stereo not drawn) [BOC-Gln-Ala-Arg-MNA]	−
COc1cc(NC(=O)[C@H](CCCNC(=N)N)NC(=O)c2ccccc2)cc2ccccc12 [BZ-Arg-MNA]	−
N=C(N)NCCC[C@H](NC(=O)[C@H](Cc1ccccc1)NC(=O)[C@@H]1CCCN1C(=O)c1ccccc1)C(=O)Nc1ccc2ccccc2c1 [BZ-Pro-Phe-Arg-βNA] (Bz-Pro-Phe-Arg-βNA)	−
COc1cc(NC(=O)C(CC(C)C)NC(=O)C(Cc2ccccc2)NC(=O)CNC(=O)C(CCCNC(=N)N)NC(=O)OCc2ccccc2)cc2ccccc12 (stereo not drawn) [CBZ-Arg-Gly-Phe-Leu-MNA] (Cbz-RGFL-{NH(4-MeO-2-naphthyl)}; configuration not given here)	−
COc1cc(NC(=O)C(CCCNC(=N)N)NC(=O)OCc2ccccc2)cc2ccccc12 (stereo not shown) [CBZ-Arg-MNA]	−
COc1cc(NC(=O)[C@H](CCCNC(=N)N)NC(=O)CNC(=O)CNC(=O)OCc2ccccc2)cc2ccccc12 [CBZ-Gly-Gly-Arg-MNA]	−
CC(C)C[C@H](NC(=O)CNC(=O)CNC(=O)OCc1ccccc1)C(=O)Nc1ccc2ccccc2c1 [CBZ-Gly-Gly-Leu-βNA] (Cbz-Gly-Gly-Leu-βNA)	−
O=C(CNC(=O)OCc1ccccc1)NCC(=O)N[C@@H](Cc1ccccc1)C(=O)Nc1ccc2ccccc2c1 [CBZ-Gly-Gly-Phe-βNA] (Cbz-Gly-Gly-Phe-βNA)	−
COc1cc(NC(=O)C(CCCNC(=N)N)NC(=O)C2CCCN2C(=O)CNC(=O)OCc2ccccc2)cc2ccccc12 (stereo not drawn) [CBZ-Gly-Pro-Arg-MNA]	−
COc1cc(NC(=O)[C@H](CCCNC(=N)N)NC(=O)[C@H](CCCNC(=N)N)NC(=O)[C@H](CC(C)C)NC(=O)OCc2ccccc2)cc2ccccc12 [CBZ-Leu-Arg-Arg-MNA]	+
COc1cc(NC(=O)[C@H](CCCNC(=N)N)NC(=O)[C@H](CCCCN)NC(=O)[C@H](CCCCN)NC(=O)OCc2ccccc2)cc2ccccc12 [CBZ-Lys-Lys-Arg-MNA]	+
NCCCC[C@H](NC(=O)OCc1ccccc1)C(=O)Nc1ccc2ccccc2c1 [CBZ-Lys-βNA]	−
COc1cc(NC(=O)[C@H](CCCN=C(N)N)NC(=O)[C@H](CCCCN)NC(=O)[C@H](CCCCN)NC(=O)[C@@H](NC(=O)OCc2ccccc2)C(C)C)cc2ccccc12 [CBZ-Val-Lys-Lys-Arg-MNA] (Cbz-VKKR-{NH(4-MeO-2-naphthyl)})	+
COc1cc(NC(=O)C(Cc2ccccc2)NC(=O)CNC(=O)C(N)CCC(N)=O)cc2ccccc12 (stereo not drawn) [Gln-Gly-Phe-MNA]	−
COc1cc(NC(=O)C(CCCN=C(N)N)NC(=O)CN)cc2ccccc12 (stereo not drawn) [Gly-Arg-MNA]	−
NCC(=O)N[C@@H](CCCN=C(N)N)C(=O)Nc1ccc2ccccc2c1 [Gly-Arg-βNA] (H-Gly-Arg-βNA)	−
NCC(=O)NCC(=O)Nc1ccc2ccccc2c1 [Gly-Gly-βNA] (H-Gly-Gly-βNA)	−
COc1cc(NC(=O)C(Cc2ccccc2)NC(=O)CN)cc2ccccc12 (stereo not drawn) [Gly-Phe-MNA]	−
